The results in this text go back to patent publication US8148373B2, “Compounds” (AstraZeneca AB, priority 2008, dated 2012).

The target of experiment [1] is T1, human muscarinic acetylcholine M3 receptor (M3-ACh) (Homo sapiens, UniProt P20309).
T1 construct: expressed in transfected cells; host or cells: CHO-K1 (Chinese Hamster Ovary) cell membranes
The experiment in a line: Muscarinic 3 Receptor Binding Assay ([3H]NMS competition, SPA). The note with it: [3H]NMS 0.1 nM, CHO-K1 cell membranes, 16 hours at room temperature; read-out: M3 pIC50 (converted). In a few lines: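 Competition SPA binding of 0.1 nM [3H]NMS (quarter Kd) to membranes from CHO-K1 cells expressing human M3, in 20 mM HEPES pH 7.4, 5 mM MgCl2, 1% DMSO. Incubated 16 h at room temperature; non-specific binding with 1 µM atropine. pIC50 from 50% reduction of specific binding.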

Experiment [2] addresses T2, Adrenergic β2 (H292 cells) (Homo sapiens, UniProt P07550).
T2 construct: endogenous in cells; host or cells: H292 cells
The experiment is described as follows: Assay for Adrenergic β2 Mediated cAMP Production (concentration response, AlphaScreen cAMP detection). As to conditions: for EC50: cAMP production, 60 minutes at room temperature, 300 μM rolipram, read-out: β2 pEC50 (converted); for β2 Intrinsic activity: fraction relative to the maximum activity determined for formoterol. Format: cell-based. In a few lines: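 Intrinsic activity is relative to the per-experiment formoterol maximum, with pEC50 from a four-parameter logistic fit of cAMP levels quantified by AlphaScreen against standards. Cells (H292) got 300 μM rolipram for 10 min, then compound for 60 min at room temperature, 1% DMSO final.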

Structures can show the parent of a compound that is named as a salt.

T2 sequence (P07550 whole entry): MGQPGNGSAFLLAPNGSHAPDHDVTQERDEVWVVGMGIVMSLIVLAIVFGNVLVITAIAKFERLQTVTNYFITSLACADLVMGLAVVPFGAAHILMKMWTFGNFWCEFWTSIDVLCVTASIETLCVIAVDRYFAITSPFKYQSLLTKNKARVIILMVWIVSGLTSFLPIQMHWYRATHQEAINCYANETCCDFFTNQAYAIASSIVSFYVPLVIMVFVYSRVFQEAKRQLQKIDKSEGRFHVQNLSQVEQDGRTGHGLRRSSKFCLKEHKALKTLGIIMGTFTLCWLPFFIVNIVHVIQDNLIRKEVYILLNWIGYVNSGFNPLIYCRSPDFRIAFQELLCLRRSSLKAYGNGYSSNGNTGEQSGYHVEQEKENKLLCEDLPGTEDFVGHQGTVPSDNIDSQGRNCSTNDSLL
T1 sequence (P20309 whole entry): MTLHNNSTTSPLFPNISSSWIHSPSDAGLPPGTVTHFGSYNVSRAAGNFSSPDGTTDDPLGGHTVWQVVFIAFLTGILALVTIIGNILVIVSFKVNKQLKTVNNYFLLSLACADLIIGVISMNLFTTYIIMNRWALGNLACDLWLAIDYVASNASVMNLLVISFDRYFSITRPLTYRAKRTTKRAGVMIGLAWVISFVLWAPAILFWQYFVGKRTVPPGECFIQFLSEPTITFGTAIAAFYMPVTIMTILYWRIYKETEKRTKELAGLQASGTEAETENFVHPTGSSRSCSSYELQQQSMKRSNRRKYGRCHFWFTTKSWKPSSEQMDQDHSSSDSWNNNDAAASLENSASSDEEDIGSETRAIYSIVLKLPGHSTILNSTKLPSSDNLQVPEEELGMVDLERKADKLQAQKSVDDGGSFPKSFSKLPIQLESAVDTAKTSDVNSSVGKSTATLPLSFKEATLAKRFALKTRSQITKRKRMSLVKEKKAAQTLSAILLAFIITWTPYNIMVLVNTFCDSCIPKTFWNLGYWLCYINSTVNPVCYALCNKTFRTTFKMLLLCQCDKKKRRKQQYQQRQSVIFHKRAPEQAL

For the molecule `CC(C)Cc1nc(C(=O)N2CCOC3(CCN(Cc4cccc(CCNC[C@H](O)c5ccc(O)c6[nH]c(=O)sc56)c4)CC3)C2)cs1` [Example 84, (R)-4-Hydroxy-7-(1-hydroxy-2-(3-((4-(2-isobutylthiazole-4-carbonyl)-1-oxa-4,9-diazaspiro[5.5]undecan-9-yl)methyl)phenethylamino)ethyl)benzo[d]thiazol-2(3H)-one ditrifluoroacetate], the IC50 in experiment [1] was 0.794 nM. Also, in experiment [2], the EC50 was 5.01 nM and the “β2 Intrinsic activity” value is 0.9.
The matching figures for `CC(C)c1nc(C(=O)N2CCOC3(CCN(Cc4cccc(C(C)(C)CNC[C@H](O)c5ccc(O)c6[nH]c(=O)sc56)c4F)CC3)C2)cs1` [Example 90, (R)-7-(2-(2-(2-Fluoro-3-((4-(2-isopropylthiazole-4-carbonyl)-1-oxa-4,9-diazaspiro[5.5]undecan-9-yl)methyl)phenyl)-2-methylpropylamino)-1-hydroxyethyl)-4-hydroxybenzo[d]thiazol-2(3H)-one ditrifluoroacetate]: 79.4 nM, 200 nM and 0.9.
`CCC(CC)c1nc(C(=O)N2CCOC3(CCN(Cc4cccc(CCNC[C@H](O)c5ccc(O)c6[nH]c(=O)sc56)c4)CC3)C2)cs1` [Example 265, (R)-4-Hydroxy-7-(1-hydroxy-2-(3-((4-(2-(pentan-3-yl)thiazole-4-carbonyl)-1-oxa-4,9-diazaspiro[5.5]undecan-9-yl)methyl)phenethylamino)ethyl)benzo[d]thiazol-2(3H)-one ditrifluoroacetate]: the IC50 in experiment [1] was 0.794 nM. Moreover, in experiment [2], the EC50 was 12.6 nM and the “β2 Intrinsic activity” value turned out to be 1.
For `CC(C)c1csc(C(=O)N2CCOC3(CCN(Cc4cccc(CCNC[C@H](O)c5ccc(O)c6[nH]c(=O)sc56)c4F)CC3)C2)c1` [Example 74, (R)-7-(2-(2-Fluoro-3-((4-(4-isopropylthiophene-2-carbonyl)-1-oxa-4,9-diazaspiro[5.5]undecan-9-yl)methyl)phenethylamino)-1-hydroxyethyl)-4-hydroxybenzo[d]thiazol-2(3H)-one ditrifluoroacetate], in experiment [1], the IC50 is 20 nM. In experiment [2], the EC50 is 12.6 nM and the “β2 Intrinsic activity” value stood at 0.9.
On the same counts, the results for `Cc1nc(C(=O)N2CCOC3(CCN(CCCOc4cccc(CNC[C@H](O)c5ccc(O)c6[nH]c(=O)ccc56)c4)CC3)C2)cs1` [Example 95, (R)-8-Hydroxy-5-(1-hydroxy-2-(3-(3-(4-(2-methylthiazole-4-carbonyl)-1-oxa-4,9-diazaspiro[5.5]undecan-9-yl)propoxy)benzylamino)ethyl)quinolin-2(1H)-one ditrifluoroacetate] are 1.58 nM, more than 3200 nM and “NV* (inactive up to a max concentration of 3.2 μM of test compound)”.
With `CC(C)c1nc(C(=O)N2CCOC3(CCN(Cc4cccc(CCCNC[C@H](O)c5ccc(O)c6[nH]c(=O)sc56)c4F)CC3)C2)cs1` [Example 88, (R)-7-(2-(3-(2-Fluoro-3-((4-(2-isopropylthiazole-4-carbonyl)-1-oxa-4,9-diazaspiro[5.5]undecan-9-yl)methyl)phenyl)propylamino)-1-hydroxyethyl)-4-hydroxybenzo[d]thiazol-2(3H)-one ditrifluoroacetate], the IC50 in experiment [1] is 2 nM. Moreover, in experiment [2], the EC50 was 12.6 nM and the “β2 Intrinsic activity” value turned out to be 1.
Regarding `CCC(CC)c1nc(C(=O)N2CCOC3(CCN(Cc4cccc(CCNC[C@H](O)c5ccc(O)c6[nH]c(=O)ccc56)c4)CC3)C2)cs1` [Example 274, (R)-8-Hydroxy-5-(1-hydroxy-2-(3-((4-(2-(pentan-3-yl)thiazole-4-carbonyl)-1-oxa-4,9-diazaspiro[5.5]undecan-9-yl)methyl)phenethylamino)ethyl)quinolin-2(1H)-one ditrifluoroacetate], in experiment [1], the IC50 was 2.51 nM. In experiment [2], the EC50 was 25.1 nM and the “β2 Intrinsic activity” value worked out at 1.0.
On the same counts, the results for `CC(C)c1ccc(C(=O)N2CCOC3(CCN(Cc4cccc(CCNC[C@H](O)c5ccc(O)c6[nH]c(=O)sc56)c4)CC3)C2)s1` [Example 268, (R)-4-Hydroxy-7-(1-hydroxy-2-(3-((4-(5-isopropylthiophene-2-carbonyl)-1-oxa-4,9-diazaspiro[5.5]undecan-9-yl)methyl)phenethylamino)ethyl)benzo[d]thiazol-2(3H)-one ditrifluoroacetate] are 1.58 nM, 10 nM and 1.
For the molecule `CC(CCCCCCCCN1CCC2(CC1)CN(C(=O)c1csc(C(C)C)n1)CCO2)NC[C@H](O)c1ccc(O)c2[nH]c(=O)sc12` (stereo partly drawn) [Example 280, (R)-4-Hydroxy-7-(1-hydroxy-2-(10-(4-(2-isopropylthiazole-4-carbonyl)-1-oxa-4,9-diazaspiro[5.5]undecan-9-yl)decan-2-ylamino)ethyl)benzo[d]thiazol-2(3H)-one formate], the IC50 in experiment [1] is 0.794 nM. In experiment [2], the EC50 is 5.01 nM and the “β2 Intrinsic activity” value was 1.2.
With `CC(C)c1nc(C(=O)N2CCOC3(CCN(Cc4ccc(F)c(CCNC[C@H](O)c5ccc(O)c6[nH]c(=O)sc56)c4F)CC3)C2)cs1` [Example 45, (R)-7-(2-(2,6-Difluoro-3-((4-(2-isopropylthiazole-4-carbonyl)-1-oxa-4,9-diazaspiro[5.5]undecan-9-yl)methyl)phenethylamino)-1-hydroxyethyl)-4-hydroxybenzo[d]thiazol-2(3H)-one ditrifluoroacetate], in experiment [1], the IC50 was 5.01 nM. Moreover, in experiment [2], the EC50 was 10 nM and the “β2 Intrinsic activity” value was found to be 0.8.
On the same counts, the results for `CC(C)c1nc(C(=O)N2CCOC3(CCN(CCOc4ccc(CCNC[C@H](O)c5ccc(O)c6[nH]c(=O)sc56)c(F)c4F)CC3)C2)cs1` [Example 269, (R)-7-(2-(2,3-Difluoro-4-(2-(4-(2-isopropylthiazole-4-carbonyl)-1-oxa-4,9-diazaspiro[5.5]undecan-9-yl)ethoxy)phenethylamino)-1-hydroxyethyl)-4-hydroxybenzo[d]thiazol-2(3H)-one ditrifluoroacetate] are 6.31 nM, 31.6 nM and 1.1.
Take `CC(C)c1nc(C(=O)N2CCOC3(CCN(CCCCCCCC(C)(C)CNC[C@H](O)c4ccc(O)c5[nH]c(=O)sc45)CC3)C2)cs1` [Example 103, (R)-4-Hydroxy-7-(1-hydroxy-2-(9-(4-(2-isopropylthiazole-4-carbonyl)-1-oxa-4,9-diazaspiro[5.5]undecan-9-yl)-2,2-dimethylnonylamino)ethyl)benzo[d]thiazol-2(3H)-one formate]: in experiment [1], the IC50 was 1 nM. In experiment [2], the EC50 is 251 nM and the “β2 Intrinsic activity” value is given as 1.
`Cc1nc(C(=O)N2CCOC3(CCN(CCOc4cc(C)c(CNC[C@H](O)c5ccc(O)c6[nH]c(=O)sc56)cc4C)CC3)C2)cs1` [Example 18, (R)-7-(2-(2,5-Dimethyl-4-(2-(4-(2-methylthiazole-4-carbonyl)-1-oxa-4,9-diazaspiro[5.5]undecan-9-yl)ethoxy)benzylamino)-1-hydroxyethyl)-4-hydroxybenzo[d]thiazol-2(3H)-one ditrifluoroacetate]: in experiment [1], the IC50 is 2.51 nM. In experiment [2], the EC50 was 63.1 nM and the “β2 Intrinsic activity” value is on record as 1.
Turning to `Cc1nc(C(=O)N2CCOC3(CCN(Cc4cccc(CCOCCC(=O)N(CCNC[C@H](O)c5ccc(O)c6[nH]c(=O)sc56)C5CCCCC5)c4)CC3)C2)cs1` [Example 277, (R)—N-Cyclohexyl-N-(2-(2-hydroxy-2-(4-hydroxy-2-oxo-2,3-dihydrobenzo[d]thiazol-7-yl)ethylamino)ethyl)-3-(3-((4-(2-methylthiazole-4-carbonyl)-1-oxa-4,9-diazaspiro[5.5]undecan-9-yl)methyl)phenylethoxy)propanamide ditrifluoroacetate], the IC50 in experiment [1] is 0.1 nM. For the same molecule, in experiment [2], the EC50 was 31.6 nM and the “β2 Intrinsic activity” value is on record as 0.9.
`Cc1nc(C(=O)N2CCOC3(CCN(CCOc4cccc(CNC[C@H](O)c5ccc(O)c6[nH]c(=O)sc56)c4)CC3)C2)cs1` [Example 10, (R)-4-Hydroxy-7-(1-hydroxy-2-(3-(2-(4-(2-methylthiazole-4-carbonyl)-1-oxa-4,9-diazaspiro[5.5]undecan-9-yl)ethoxy)benzylamino)ethyl)benzo[d]thiazol-2(3H)-one ditrifluoroacetate]: in experiment [1], the IC50 is 5.01 nM. Also, in experiment [2], the EC50 is 316 nM and the “β2 Intrinsic activity” value was 0.9.
For the molecule `O=C(c1cc2ccccc2s1)N1CCOC2(CCN(Cc3cccc(CCNC[C@H](O)c4ccc(O)c5[nH]c(=O)sc45)c3F)CC2)C1` [Example 79, (R)-7-(2-(3-((4-(Benzo[b]thiophene-2-carbonyl)-1-oxa-4,9-diazaspiro[5.5]undecan-9-yl)methyl)-2-fluorophenethylamino)-1-hydroxyethyl)-4-hydroxybenzo[d]thiazol-2(3H)-one ditrifluoroacetate], in experiment [1], the IC50 is 126 nM. In experiment [2], the EC50 is 6.31 nM and the “β2 Intrinsic activity” value worked out at 0.9.
